Values quoted from earlier work as cited in patent EP3731827B1, “ORAL PHARMACEUTICAL COMPOSITION COMPRISING POSACONAZOLE” (Sanovel Ilac Sanayi ve Ticaret A.S., priority 2017, dated 2019).
Like-named read-outs stand apart in the source and are kept apart here.

solubility (at pH 6.4 or higher): less than 1 µg/ml | solubility (in the stomach): about 0.8 mg/ml
SMILES: CC[C@@H]([C@H](C)O)n1ncn(-c2ccc(N3CCN(c4ccc(OC[C@@H]5CO[C@@](Cn6cncn6)(c6ccc(F)cc6F)C5)cc4)CC3)cc2)c1=O [posaconazole, 4-[4-[4-[4-[[(3R,5R)-5-(2,4-difluorophenyl)-5-(1,2,4-triazol-1-ylmethyl)oxolan-3-yl]methoxy]phenyl]piperazin-1-yl]phenyl]-2-[(2S,3S)-2-hydroxypentan-3-yl]-1,2,4-triazol-3-one]
